#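 In this assay, cells in 96-well plates receive the compound at five concentrations for 48 hours. Endpoints are linearly interpolated between the surrounding concentrations. GI50 is the concentration that inhibits growth by half. TGI denotes the concentration required for complete inhibition of growth.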
# Key:
# Assay in all cases: growth of human tumour cells (NCI), 48 h
# [1] = test system: A549 NSCLC
# [2] = test system: HCC-2998 colon
# [3] = test system: HOP-62 NSCLC
# [4] = test system: NCI-H226 lung
# [5] = test system: NCI-H460 lung
# [6] = test system: NCI-H522 lung
# [7] = test system: SK-OV-3 ovarian
# [8] = test system: SW-620 colon
# [9] = test system: UACC-62 melanoma
# [10] = test system: COLO 205 colon
smiles,measurement,setting,value
CN=C(NC(=S)N(C)C)N(C)C,TGI,[1],> 100 µM
same,TGI,[2],> 100 µM
same,TGI,[3],> 100 µM
same,TGI,[4],> 100 µM
same,TGI,[5],> 100 µM
same,TGI,[6],> 100 µM
same,TGI,[7],> 100 µM
same,TGI,[8],> 100 µM
same,TGI,[9],> 100 µM
Cc1c(CCO)c(=O)n2c([nH]c3ccccc32)c1C#N,TGI,[1],> 100 µM
same,TGI,[10],> 100 µM
same,TGI,[2],> 100 µM
same,TGI,[3],> 100 µM
same,TGI,[4],> 100 µM
same,TGI,[5],98.8 µM
same,TGI,[6],> 100 µM
same,TGI,[7],> 100 µM
same,TGI,[8],> 100 µM
same,TGI,[9],> 100 µM
Cc1cc(Nc2nc(-c3cccnc3)nc3ccccc23)n[nH]1,GI50,[1],0.672 µM
same,TGI,[1],> 100 µM
same,GI50,[10],1.07 µM
same,TGI,[10],3.74 µM
same,GI50,[2],21.5 µM
same,TGI,[2],> 100 µM
same,GI50,[3],2.68 µM
same,TGI,[3],> 89.8 µM
same,GI50,[4],1.39 µM
same,TGI,[4],> 24.2 µM
same,GI50,[5],1.84 µM
same,TGI,[5],> 100 µM
same,GI50,[6],1.69 µM
same,TGI,[6],> 100 µM
same,GI50,[7],0.956 µM
same,TGI,[7],> 100 µM
same,GI50,[8],1.09 µM
same,TGI,[8],> 100 µM
same,GI50,[9],0.943 µM
same,TGI,[9],35.6 µM
COc1ccc(/C=c2\sc3n(c2=O)C2C(NN=3)N(C)C(=O)N2C)cc1 (stereo not drawn),GI50,[1],1.35 µM
same,TGI,[1],> 100 µM
same,GI50,[10],1.09 µM
same,TGI,[10],> 100 µM
same,GI50,[2],1.5 µM
same,TGI,[2],> 100 µM
same,GI50,[3],1.29 µM
same,TGI,[3],> 100 µM
same,GI50,[4],1.18 µM
same,TGI,[4],> 100 µM
same,GI50,[5],0.933 µM
same,TGI,[5],> 100 µM
same,GI50,[6],0.877 µM
same,TGI,[6],> 100 µM
same,GI50,[7],2.13 µM
same,TGI,[7],> 100 µM
same,GI50,[8],0.747 µM
same,TGI,[8],> 100 µM
same,GI50,[9],0.578 µM
same,TGI,[9],> 100 µM
CN(COC(=O)c1ccccc1)c1nc(N(C)COC(=O)c2ccccc2)nc(N(C)COC(=O)c2ccccc2)n1,TGI,[1],> 100 µM
same,TGI,[10],> 100 µM
same,TGI,[2],> 100 µM
same,TGI,[3],40.6 µM
same,TGI,[4],> 100 µM
same,TGI,[5],> 100 µM
same,TGI,[6],> 100 µM
same,TGI,[7],> 100 µM
same,TGI,[8],> 100 µM
same,TGI,[9],> 100 µM
COC(=O)C1C=CCON2CCc3c(n(C)c4ccccc34)C12 (stereo not drawn),TGI,[1],> 100 µM
same,TGI,[10],> 100 µM
same,TGI,[2],> 100 µM
same,TGI,[3],> 100 µM
same,TGI,[4],> 100 µM
same,TGI,[5],> 100 µM
same,TGI,[6],> 100 µM
same,TGI,[7],> 100 µM
same,TGI,[8],> 100 µM
Cc1ccc(C(=O)N(Cc2ccccc2)Cc2ccccc2)cc1N=NN(C)C,TGI,[1],> 100 µM
same,TGI,[10],44.7 µM
same,TGI,[2],96 µM
same,TGI,[3],90 µM
same,TGI,[4],56.2 µM
same,TGI,[5],> 100 µM
same,TGI,[6],38.7 µM
same,TGI,[7],99.2 µM
same,TGI,[8],> 100 µM
same,TGI,[9],> 31.6 µM
Oc1ccc(-c2nc3ccc4[nH]ncc4c3c3c2CCCC3)c(F)c1,GI50,[1],1.17 µM
same,TGI,[1],6.11 µM
same,GI50,[10],2.25 µM
same,TGI,[10],5.56 µM
same,GI50,[2],4.25 µM
same,TGI,[2],14.5 µM
same,GI50,[3],1.5 µM
same,TGI,[3],5.47 µM
same,GI50,[4],5.26 µM
same,TGI,[4],69.9 µM
same,GI50,[5],2.18 µM
same,TGI,[5],11.1 µM
same,GI50,[6],1.25 µM
same,TGI,[6],4.72 µM
same,GI50,[7],0.765 µM
same,TGI,[7],2.75 µM
same,GI50,[8],1.41 µM
same,TGI,[8],8.29 µM
same,GI50,[9],1.67 µM
same,TGI,[9],4.37 µM

# From PubChem BioAssay (NCI)
